Data reported in patent US10538498B2, “1,3,4-oxadiazole sulfonamide derivative compounds as histone deacetylase 6 inhibitor, and the pharmaceutical composition comprising the same” (Chong Kun Dang Pharmaceutical Corp., priority 2015, dated 2020).

What was measured:
human recombinant HDAC6 = biological target: T1, human recombinant HDAC6 (Homo sapiens, UniProt Q9UBN7); assay: HDAC6 enzyme activity inhibition assay (HDAC Fluorimetric Drug Discovery Kit); format: biochemical; conditions: for HDAC6 selectivity (fold): HDAC1 vs HDAC6; for IC50: same protocol as the HDAC1 enzyme activity test
T1 construct: purchased Calbiochem 382180
T1 sequence (Q9UBN7 1-1215): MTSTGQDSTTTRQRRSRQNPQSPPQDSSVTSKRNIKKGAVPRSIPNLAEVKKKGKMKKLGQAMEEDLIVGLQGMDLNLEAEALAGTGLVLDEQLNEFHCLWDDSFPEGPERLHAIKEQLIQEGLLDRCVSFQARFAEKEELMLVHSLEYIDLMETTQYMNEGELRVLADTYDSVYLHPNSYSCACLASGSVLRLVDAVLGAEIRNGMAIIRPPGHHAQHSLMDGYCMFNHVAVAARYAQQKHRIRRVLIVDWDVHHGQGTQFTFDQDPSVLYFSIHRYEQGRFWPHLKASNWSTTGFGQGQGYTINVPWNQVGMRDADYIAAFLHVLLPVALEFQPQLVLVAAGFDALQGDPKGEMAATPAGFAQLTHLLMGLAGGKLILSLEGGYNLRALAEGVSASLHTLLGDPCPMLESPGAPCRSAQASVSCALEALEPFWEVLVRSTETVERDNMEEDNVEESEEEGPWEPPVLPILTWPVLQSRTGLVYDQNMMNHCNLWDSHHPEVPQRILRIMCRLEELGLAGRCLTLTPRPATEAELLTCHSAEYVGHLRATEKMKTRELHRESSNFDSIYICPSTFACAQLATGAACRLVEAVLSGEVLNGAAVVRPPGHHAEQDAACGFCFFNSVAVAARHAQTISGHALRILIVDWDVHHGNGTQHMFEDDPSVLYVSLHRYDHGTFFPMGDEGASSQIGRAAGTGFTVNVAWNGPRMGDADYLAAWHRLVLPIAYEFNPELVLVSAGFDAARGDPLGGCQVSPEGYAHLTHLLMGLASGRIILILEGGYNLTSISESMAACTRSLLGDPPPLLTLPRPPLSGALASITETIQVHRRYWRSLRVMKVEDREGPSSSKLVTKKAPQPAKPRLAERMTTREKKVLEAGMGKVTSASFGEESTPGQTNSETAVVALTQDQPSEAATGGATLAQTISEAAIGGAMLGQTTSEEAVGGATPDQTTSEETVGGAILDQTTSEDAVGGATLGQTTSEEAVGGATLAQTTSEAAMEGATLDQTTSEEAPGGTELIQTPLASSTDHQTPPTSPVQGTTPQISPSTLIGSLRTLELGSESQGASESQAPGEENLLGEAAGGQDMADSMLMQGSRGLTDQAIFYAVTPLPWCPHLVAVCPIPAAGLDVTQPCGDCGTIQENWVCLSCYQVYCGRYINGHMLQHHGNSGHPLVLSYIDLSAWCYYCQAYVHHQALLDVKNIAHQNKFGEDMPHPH
Summary of the method: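 5-fold compound dilutions + 0.3 μg enzyme + 10 μM Fluor de Lys-SIRT1 substrate, 60 min, 30° C; Developer II 30 min; fluorescence Ex 360/Em 460; IC50 by curve fit.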

human recombinant HDAC1 = biological target: T2, human recombinant HDAC1 (Homo sapiens, UniProt Q13547); assay: HDAC1 enzyme activity inhibition assay (HDAC Fluorimetric Drug Discovery Kit); format: biochemical; conditions: 0.3 μg enzyme, 10 μM substrate, 30° C., 60 minutes
T2 construct: purchased Enzo Life Science BML-SE456
T2 sequence (Q13547 whole entry): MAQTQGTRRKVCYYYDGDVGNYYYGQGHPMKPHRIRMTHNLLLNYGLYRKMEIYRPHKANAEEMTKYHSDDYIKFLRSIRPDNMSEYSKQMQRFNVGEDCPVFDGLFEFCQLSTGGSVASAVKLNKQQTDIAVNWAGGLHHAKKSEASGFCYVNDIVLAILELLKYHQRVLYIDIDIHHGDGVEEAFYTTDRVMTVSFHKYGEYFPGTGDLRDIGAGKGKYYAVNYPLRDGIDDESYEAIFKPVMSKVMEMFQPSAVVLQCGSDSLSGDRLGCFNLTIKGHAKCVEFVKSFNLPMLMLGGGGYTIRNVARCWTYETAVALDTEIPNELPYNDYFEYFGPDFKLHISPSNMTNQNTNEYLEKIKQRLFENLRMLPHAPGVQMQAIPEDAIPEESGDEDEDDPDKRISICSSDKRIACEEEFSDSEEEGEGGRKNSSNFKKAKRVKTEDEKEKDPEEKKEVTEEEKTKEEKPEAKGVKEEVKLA
Description: In order to examine the HDAC6 selectivity of the compounds of formula I of the present invention by HDAC1 and HDAC6 enzymatic activity inhibition assays, an experiment was performed using a conventional substance as a control.
HDAC enzyme activity was measured using a HDAC Fluorimetric Drug Discovery Kit (BML-AK511, 516, Enzo Life Science). For the HDAC1 enzyme activity test, human recombinant HDAC1 (BML-SE456) was used as an enzyme source, and Fluor de Lys®-“SIRT1 (BNL-KI177) was used as a substrate. A 5-fold dilution of the compound was seeded into a 96-well plate, and then 0.3 μg of the enzyme and 10 μM of the substrate were added to each well of the plate and allowed to react at 30° C. for 60 minutes. Then, Fluor de Lys®-Developer II (BML-KI176) was added thereto and allowed to react for 30 minutes, after which the fluorescence value (Ex 360, Em 460) was measured using a multi-plate reader (Flexstation 3, Molecular Device). The HDAC6 enzyme was tested using human recombinant HDAC6 (382180) (Calbiochem) according to the same protocol as the HDAC1 enzyme activity test method. Based on the resulting values, each IC50 value was calculated using GraphPad Prism4.0 program.

| SMILES | HDAC6 selectivity (fold) (human recombinant HDAC6) | IC50 (human recombinant HDAC6) | IC50 (human recombinant HDAC1) |
| --- | --- | --- | --- |
| CC(=O)N1CC(N2CCC(S(=O)(=O)N(Cc3ccc(-c4nnc(C(F)F)o4)cn3)c3ccc(F)c(Cl)c3)CC2)C1 [Compound 11502, 1-(1-acetylazetidin-3-yl)-N-(3-chloro-4-fluorophenyl)-N-((5-(5-(difluoromethyl)-1,3,4-oxadiazol-2-yl)pyridin-2-yl)methyl)piperidine-4-sulfonamide] | 5579 fold | 0.014 µM | 78.1 µM |
| CS(=O)(=O)N1CC(N2CCC(S(=O)(=O)N(Cc3ccc(-c4nnc(C(F)F)o4)cn3)c3ccc(F)c(Cl)c3)CC2)C1 [Compound 11503, N-(3-chloro-4-fluorophenyl)-N-((5-(5-(difluoromethyl)-1,3,4-oxadiazol-2-yl)pyridin-2-yl)methyl)-1-(1-(methylsulfonyl)azetidin-3-yl)piperidine-4-sulfonamide] | 4792 fold | 0.015 µM | 71.9 µM |
| CCS(=O)(=O)N(Cc1ccc(-c2nnc(C(F)F)o2)cn1)c1ccc(Cl)c(C)c1 [Compound 11504, N-(4-chloro-3-methylphenyl)-N-((5-(5-(difluoromethyl)-1,3,4-oxadiazol-2-yl)pyridin-2-yl)methyl)ethanesulfonamide] | 4790 fold | 0.018 µM | 86.2 µM |
| CCS(=O)(=O)N(Cc1ccc(-c2nnc(C(F)F)o2)cn1)c1ccc(C)c(Cl)c1 [Compound 11505, N-(3-chloro-4-methylphenyl)-N-((5-(5-(difluoromethyl)-1,3,4-oxadiazol-2-yl)pyridin-2-yl)methyl)ethanesulfonamide] | 4646 fold | 0.013 µM | 60.4 µM |
| CCS(=O)(=O)N(Cc1ccc(-c2nnc(C(F)F)o2)cn1)c1cc(Cl)cc(Cl)c1 [Compound 11506, N-(3,5-dichlorophenyl)-N-((5-(5-(difluoromethyl)-1,3,4-oxadiazol-2-yl)pyridin-2-yl)methyl)ethanesulfonamide] | 4977 fold | 0.012 µM | 59.7 µM |
| CCS(=O)(=O)N(Cc1ccc(-c2nnc(C(F)F)o2)cn1)c1ccc(Cl)c(Cl)c1 [Compound 11507, N-(3,4-dichlorophenyl)-N-((5-(5-(difluoromethyl)-1,3,4-oxadiazol-2-yl)pyridin-2-yl)methyl)ethanesulfonamide] | 3672 fold | 0.014 µM | 51.4 µM |
| CCS(=O)(=O)N(Cc1ccc(-c2nnc(C(F)F)o2)cn1)c1cc(C)cc(Cl)c1 [Compound 11508, N-(3-chloro-5-methylphenyl)-N-((5-(5-(difluoromethyl)-1,3,4-oxadiazol-2-yl)pyridin-2-yl)methyl)ethanesulfonamide] | 2155 fold | 0.023 µM | 49.6 µM |
| O=S(=O)(CCN1CCCC1)N(Cc1ccc(-c2nnc(C(F)F)o2)cc1F)c1ccc(F)c(Cl)c1 [Compound 11514, N-(3-chloro-4-fluorophenyl)-N-(4-(5-(difluoromethyl)-1,3,4-oxadiazol-2-yl)-2-fluorobenzyl)-2-(pyrrolidin-1-yl)ethane-1-sulfonamide] | 938 fold | 0.043 µM | 40.3 µM |
| CCS(=O)(=O)N(Cc1ccc(-c2nnc(C(F)F)o2)cc1F)c1ccc2cnn(C)c2c1 [Compound 11521, N-(4-(5-(difluoromethyl)-1,3,4-oxadiazol-2-yl)-2-fluorobenzyl)-N-(1-methyl-1H-indazol-6-yl)ethanesulfonamide] | 2407 fold | 0.018 µM | 43.3 µM |
| O=S(=O)(C1CCN(C2CCC2)CC1)N(Cc1ccc(-c2nnc(C(F)F)o2)cc1)c1ccccc1 [Compound 11639, 1-cyclobutyl-N-(4-(5-(difluoromethyl)-1,3,4-oxadiazol-2-yl)benzyl)-N-phenylpiperidine-4-sulfonamide] | 1849 fold | 0.042 µM | 77.7 µM |
| C[C@@H]1CN(CCS(=O)(=O)N(Cc2ccc(-c3nnc(C(F)F)o3)cc2)c2ccccc2)C[C@H](C)N1C [Compound 11646, N-(4-(5-(difluoromethyl)-1,3,4-oxadiazol-2-yl)benzyl)-N-phenyl-2-((3S,5R)-3,4,5-trimethylpiperazin-1-yl)ethane-1-sulfonamide] | 7254 fold | 0.015 µM | 109 µM |
| O=S(=O)(CCCN1CCCC1)N(Cc1ccc(-c2nnc(C(F)F)o2)cc1)c1ccccc1 [Compound 11647, N-(4-(5-(difluoromethyl)-1,3,4-oxadiazol-2-yl)benzyl)-N-phenyl-3-(pyrrolidin-1-yl)propane-1-sulfonamide] | 3626 fold | 0.022 µM | 79.8 µM |

Next, values leading:

| HDAC6 selectivity (fold) (human recombinant HDAC6) | IC50 (human recombinant HDAC6) | IC50 (human recombinant HDAC1) | SMILES |
| --- | --- | --- | --- |
| 586 fold | 0.068 µM | 39.8 µM | CS(=O)(=O)N(Cc1cnc(-c2nnc(C(F)F)o2)cn1)c1ccccc1 [Compound 11518, N-((5-(5-(difluoromethyl)-1,3,4-oxadiazol-2-yl)pyrazin-2-yl)methyl)-N-phenylmethanesulfonamide] |
| 312 fold | 0.149 µM | 46.5 µM | CS(=O)(=O)N(Cc1ncc(-c2nnc(C(F)(F)F)o2)cn1)c1ccccc1 [Compound 11565, N-phenyl-N-((5-(5-(trifluoromethyl)-1,3,4-oxadiazol-2-yl)pyrimidin-2-yl)methyl)methanesulfonamide] |
| 7 fold | 4.33 µM | 30.9 µM | CS(=O)(=O)N(Cc1ccc(-c2nnc(C(F)(F)F)o2)nn1)c1ccccc1 [Compound 11567, N-phenyl-N-((6-(5-(trifluoromethyl)-1,3,4-oxadiazol-2-yl)pyridazin-3-yl)methyl)methanesulfonamide] |
| 1 fold | 2.29 µM | 2.54 µM | CS(=O)(=O)N(Cc1cnc(-c2nnc(C(F)(F)F)o2)cn1)c1ccccc1 [Compound 11573, N-phenyl-N-((5-(5-(trifluoromethyl)-1,3,4-oxadiazol-2-yl)pyrazin-2-yl)methyl)methanesulfonamide] |
| 3349 fold | 0.02 µM | 67 µM | CN1CCC(S(=O)(=O)N(Cc2ccc(-c3nnc(C(F)F)o3)cc2)c2ccccc2)CC1 [Compound 11637, N-(4-(5-(difluoromethyl)-1,3,4-oxadiazol-2-yl)benzyl)-1-methyl-N-phenylpiperidine-4-sulfonamide] |
| 1778 fold | 0.023 µM | 40.9 µM | CC(C)N1CCC(S(=O)(=O)N(Cc2ccc(-c3nnc(C(F)F)o3)cc2)c2ccccc2)CC1 [Compound 11638, N-(4-(5-(difluoromethyl)-1,3,4-oxadiazol-2-yl)benzyl)-1-isopropyl-N-phenylpiperidine-4-sulfonamide] |
| 1277 fold | 0.061 µM | 77.9 µM | O=S(=O)(CCN1CCCC1)N(Cc1ccc(-c2nnc(C(F)F)o2)cc1)c1ccccc1 [Compound 11645, N-(4-(5-(difluoromethyl)-1,3,4-oxadiazol-2-yl)benzyl)-N-phenyl-2-(pyrrolidin-1-yl)ethane-1-sulfonamide] |
